Laboratory results as given in patent US20240287074A1, “SALTS AND CRYSTALS” (Kinoxis Therapeutics Pty Ltd, priority 2020, published 2024).
Converted amounts (≈) assume the structure as drawn. “Also recorded” adds a separate entry of the source. Where a name gives a salt, the structure may show the parent alone.

Legend:
Type in all cases: physicochemical
[1] = Primary salt screen: XRPD pattern after drying and after 40° C./75% RH; conditions: for Post-Drying (XRPD pattern): oven at 40° C. for about 24 hours; for Post 40° C./75% RH (XRPD pattern): stability chamber at 40° C./75% RH for about 24 hours; for Comments (stability): salt screen summary
Procedure: The following procedure was used: • Approximately 30 mg of 1-methyl-1,4,5,10-tetrahydropyrazolo[3,4-b][1,5]benzodiazepine freebase was weighed into 5×1.5 mL glass vials. • 300 μL of selected solvent system was added to each vial to form a mobile slurry, and a beige slurry was observed. • 1.05 (or 0.525 for the hemi experiments) equivalents of acid counterion (see Table 1) was added to each sample and initial observations were recorded. • The samples were temperature cycled between ambient and 40° C. in 4-hour cycles for about 72 hours. • The samples were collected, and observations made. • Samples in which solids were observed were filtered via centrifugation and the solids were loaded onto a multi-well XRPD plate and analyzed by XRPD. • Samples in which no solids were observed were uncapped and left undisturbed to allow evaporation at ambient temperature.

[2] = 1-week stability studies (XRPD, HPLC)
Procedure: The isolated 1-methyl-1,4,5,10-tetrahydropyrazolo[3,4-b][1,5]benzodiazepine freebase was characterized by TG/DTA, DSC, DVS with post-DVS, XRPD, HPLC, ^1H NMR and LC-MS, as per the methods detailed above. The 1-methyl-1,4,5,10-tetrahydropyrazolo[3,4-b][1,5]benzodiazepine freebase was stored at 40° C./75% relative humidity (RH) for 1 week to determine the stability of the material at increased RH and to identify potential hydrate formation.
One-week stability studies were conducted on the freebase (example 1), phosphate form 1 (example 3) and L-tartrate form 1 (example 5) salts using the following procedures: • Approximately 20 mg of each form was weighed into 3×2 mL glass vials. • One vial for each form was stored under the following conditions for 1-week: • 1. Ambient temperature, light and humidity (unsealed vial) • 2. 40° C./75% RH (unsealed vial) • 3. 80° C. (sealed vial) • The samples were collected after 1-week and observations were made. • The solids were analyzed by XRPD and HPLC.

[3] = Thermodynamic solubility in PBS buffer pH 7.4
Procedure: The thermodynamic solubility of freebase (example 1), phosphate form 1 (example 3) and L-tartrate form 1 (example 5) were assessed in phosphate buffered saline (PBS) buffer at pH 7.4 according to the following procedure: • Approximately 30 mg of each form was weighed into 2 mL glass vials. • 100 μL of buffer solution was added to each vial until partial dissolution was observed. • The observed slurries were agitated at ambient temperature for about 24 hours. • The samples were collected, and observations were recorded. • The samples were filtered via centrifugation. • The pH of the mother liquors were recorded. • The concentration of the mother liquors were recorded by HPLC.

[4] = Dynamic / gravimetric vapour sorption (DVS/GVS) hygroscopicity
Procedure: Approximately, 10-20 mg of sample was placed into a mesh vapour sorption balance pan and loaded into a DVS Intrinsic dynamic vapour sorption balance by Surface Measurement Systems. The sample was subjected to a ramping profile from 40-90% relative humidity (RH) at 10% increments, maintaining the sample at each step until a stable weight had been achieved (dm/dt 0.004%, minimum step length 30 minutes, maximum step length 500 minutes) at 25° C. After completion of the sorption cycle, the sample was dried using the same procedure to 0% RH and then a second sorption cycle back to 40% RH. Two cycles were performed. The weight change during the sorption/desorption cycles were plotted, allowing for the hygroscopic nature of the sample to be determined. XRPD analysis was then carried out on any solid retained.
Approximately 10-20 mg of sample was placed into a mesh vapour sorption balance pan and loaded into an IGASorp Moisture Sorption Analyser balance by Hiden Analytical. The sample was subjected to a ramping profile from 40-90% relative humidity (RH) at 10% increments, maintaining the sample at each step until a stable weight had been achieved (98% step completion, minimum step length 30 minutes, maximum step length 60 minutes) at 25° C. After completion of the sorption cycle, the sample was dried using the same procedure to 0% RH, and finally taken back to the starting point of 40% RH. Two cycles were performed. The weight change during the sorption/desorption cycles were plotted, allowing for the hygroscopic nature of the sample to be determined.

SMILES	Post-Drying (XRPD pattern) [1]	Post 40° C./75% RH (XRPD pattern) [1]	other results
Cn1ncc2c1Nc1ccccc1NC2 [Besylate pattern 1]	Pattern 1	Pattern 1, 2	–
Cn1ncc2c1Nc1ccccc1NC2 [Edisylate pattern 1]	Pattern 1	Pattern 2	Comments (stability) [1]: Good
Cn1ncc2c1Nc1ccccc1NC2 [Edisylate pattern 2]	Pattern 2	Pattern 2	–
Cn1ncc2c1Nc1ccccc1NC2 [Esylate pattern 1]	Pattern 1	Pattern 2	–
Cn1ncc2c1Nc1ccccc1NC2 [Esylate pattern 2]	Pattern 2	Pattern 2	–
Cn1ncc2c1Nc1ccccc1NC2 [Hydrobromide pattern 1]	Pattern 1	Pattern 1	Comments (stability) [1]: Good
Cn1ncc2c1Nc1ccccc1NC2 [Hydrobromide pattern 2]	Pattern 2	Pattern 2	–
Cn1ncc2c1Nc1ccccc1NC2 [Isethionate pattern 1]	Pattern 1	Pattern 3	–
Cn1ncc2c1Nc1ccccc1NC2 [Isethionate pattern 2]	Pattern 2	Pattern 3	–
Cn1ncc2c1Nc1ccccc1NC2 [Maleate pattern 1]	Pattern 1	Pattern 1	–
Cn1ncc2c1Nc1ccccc1NC2 [Mesylate pattern 1]	Pattern 1	Pattern 1/2	–
Cn1ncc2c1Nc1ccccc1NC2 [Mesylate pattern 2]	Pattern 2	Pattern 1	–
Cn1ncc2c1Nc1ccccc1NC2 [Mesylate pattern 3]	Pattern 3	Deliquesced	–
Cn1ncc2c1Nc1ccccc1NC2 [Napadisylate pattern 1]	Pattern 1	Pattern 1	Comments (stability) [1]: Good
Cn1ncc2c1Nc1ccccc1NC2 [Napadisylate pattern 2]	Pattern 2	Pattern 2	–
Cn1ncc2c1Nc1ccccc1NC2 [Napsylate pattern 1]	Pattern 1	Pattern 2	Comments (stability) [1]: Good
Cn1ncc2c1Nc1ccccc1NC2 [Napsylate pattern 2]	Pattern 2	Pattern 2	–
Cn1ncc2c1Nc1ccccc1NC2 [Sulfate pattern 1]	Pattern 1	Pattern 4	–
Cn1ncc2c1Nc1ccccc1NC2 [Sulfate pattern 2]	Pattern 2	Pattern 2	–
Cn1ncc2c1Nc1ccccc1NC2 [Sulfate pattern 3]	Pattern 3	Pattern 3	–
Cn1ncc2c1Nc1ccccc1NC2 [Tosylate pattern 1]	Pattern 1	Pattern 1	Comments (stability) [1]: Good
Cn1ncc2c1Nc1ccccc1NC2 [Tosylate pattern 2]	Pattern 2	Pattern 2	–
Cn1ncc2c1Nc1ccccc1NC2 [Tosylate pattern 3]	Pattern 3	Pattern 3	–
Cn1ncc2c1Nc1ccccc1NC2 [freebase, 1-Methyl-1,4,5,10-tetrahydropyrazolo[3,4-b][1,5]benzodiazepine]	–	–	changes in form or purity ([2]; 1 week at 40° C./75% RH and 80° C.): no changes in form or purity; XRPD diffractogram after storage ([2]; 1 week under ambient conditions (temperature, light, humidity)): An additional peak was observed; changes in pattern/form by XRPD post-storage ([2]; 40° C./75% RH for 1 week): No significant changes in pattern; also recorded: no changes in form; stability under ambient light ([2]; conclusion of 1-week stability study): may be unstable under ambient light; changes in purity by HPLC ([2]; stored under ambient conditions): did not show any significant changes in purity; solubility ([3]; PBS buffer at pH 7.4, ambient temperature, about 24 hours, HPLC): 300 µg/mL (≈ 1500 µM); pH (t = 24 h) ([3]; mother liquor of PBS pH 7.4 slurry): 7.32; change in form by XRPD post-DVS analysis [4]: No change in form; hygroscopicity by DVS ([4]; above 70% RH): hygroscopic; DVS mass increase ([4]; between 0 and 70% RH): about 0.11%; hygroscopicity by DVS ([4]; between 0 and 70% RH): non-hygroscopic; DVS mass increase ([4]; between 70 and 90% RH): about 2.74%
